# Test results from ChEMBL document CHEMBL1275354, “Anticonvulsant activity of 2,4(1H)-diarylimidazoles in mice and rats acute seizure models” (Bioorg Med Chem, 2010).
# Activity calls are given as the source filed them. The rule behind the calls is not given here.
# Experiments:
# Mus musculus [1] = assay: Anticonvulsant activity against subcutaneous metrazole-induced seizures in ip dosed albino CF1 mouse assessed as minimum effective dose after 4 hrs; type: functional; settings: albino CF1, 4 h, read-out: MED
# Rattus norvegicus [2] = assay: Anticonvulsant activity in albino Sprague-Dawley rat assessed as protection against maximal electroshock-induced seizures at 30 mg/kg, po after 4 hrs; type: functional, organism-based; parameters: dose 30 mg/kg
# Mus musculus [3] = assay: Anticonvulsant activity against maximal electroshock-induced seizures in ip dosed albino CF1 mouse assessed as minimum effective dose after 4 hrs; type: functional; settings: read-out: MED
# Mus musculus [4] = assay: Neurotoxicity in albino CF1 mouse assessed as minimal motor impairment at 300 mg/kg, ip after 4 hrs by rotarod test; type: toxicity, organism-based; parameters: dose 300 mg/kg, route intraperitoneal; settings: in vivo
# Mus musculus [5] = assay: Anticonvulsant activity in albino CF1 mouse assessed as protection against maximal electroshock-induced seizures at 30 mg/kg, ip after 0.5 hrs; type: functional, organism-based; parameters: dose 30 mg/kg
# Mus musculus [6] = assay: Anticonvulsant activity in albino CF1 mouse assessed as protection against maximal electroshock-induced seizures at 300 mg/kg, ip after 4 hrs; type: functional, organism-based; parameters: dose 300 mg/kg
# Mus musculus [7] = assay: Neurotoxicity in ip dosed albino CF1 mouse assessed as minimum dose required to cause toxicity after 4 hrs by rotarod test; type: organism-based; settings: in vivo
# Mus musculus [8] = assay: Anticonvulsant activity in albino CF1 mouse assessed as protection against subcutaneous metrazole-induced seizures at 300 mg/kg, ip after 4 hrs; type: functional, organism-based; parameters: dose 300 mg/kg
# Mus musculus [9] = assay: Neurotoxicity in albino CF1 mouse assessed as minimal motor impairment at 100 mg/kg, ip after 0.5 hrs by rotarod test; type: toxicity, organism-based; parameters: dose 100 mg/kg, route intraperitoneal; settings: in vivo
# Mus musculus [10] = species: Mus musculus; assay: Protective index, ratio of TD50 for albino CF1 mouse by rotarod test to ED50 for albino CF1 mouse by maximal electroshock seizures test; type: functional
# Mus musculus [11] = assay: Neurotoxicity in ip dosed albino CF1 mouse assessed as minimum dose required to cause toxicity after 0.5 hrs by rotarod test; type: organism-based; settings: in vivo
# Mus musculus [12] = assay: Anticonvulsant activity in albino CF1 mouse assessed as protection against maximal electroshock-induced seizures at 60 mg/kg, ip after 1 hr; type: functional, organism-based; parameters: dose 60 mg/kg
# Mus musculus [13] = assay: Neurotoxicity in albino CF1 mouse assessed as minimal motor impairment at 100 mg/kg, ip after 0.25 hrs by rotarod test; type: toxicity, organism-based; parameters: dose 100 mg/kg, route intraperitoneal; settings: in vivo
# Mus musculus [14] = assay: Anticonvulsant activity in albino CF1 mouse assessed as protection against subcutaneous metrazole-induced seizures at 30 mg/kg, ip after 4 hrs; type: functional, organism-based; parameters: dose 30 mg/kg
# Mus musculus [15] = assay: Neurotoxicity in albino CF1 mouse assessed as minimal motor impairment at 30 mg/kg, ip after 4 hrs by rotarod test; type: toxicity, organism-based; parameters: dose 30 mg/kg, route intraperitoneal; settings: in vivo
# Mus musculus [16] = assay: Anticonvulsant activity ip dosed albino CF1 mouse assessed as protection against maximal electroshock-induced seizures after 1 hr; type: functional
# Mus musculus [17] = assay: Neurotoxicity in albino CF1 mouse assessed as minimal motor impairment at 100 mg/kg, ip after 4 hrs by rotarod test; type: toxicity, organism-based; parameters: dose 100 mg/kg, route intraperitoneal; settings: in vivo
# Mus musculus [18] = assay: Anticonvulsant activity in albino CF1 mouse assessed as protection against maximal electroshock-induced seizures at 300 mg/kg, ip after 0.5 hrs; type: functional, organism-based; parameters: dose 300 mg/kg
# Mus musculus [19] = assay: Anticonvulsant activity against maximal electroshock-induced seizures in ip dosed albino CF1 mouse assessed as minimum effective dose after 0.5 hrs; type: functional; settings: read-out: MED
# Mus musculus [20] = assay: Anticonvulsant activity in albino CF1 mouse assessed as protection against subcutaneous metrazole-induced seizures at 150 mg/kg, ip after 1 hr; type: functional, organism-based; parameters: dose 150 mg/kg
# Rattus norvegicus [21] = assay: Anticonvulsant activity in albino Sprague-Dawley rat assessed as protection against maximal electroshock-induced seizures at 30 mg/kg, po after 0.5 hrs; type: functional, organism-based; parameters: dose 30 mg/kg
# Mus musculus [22] = assay: Neurotoxicity in albino CF1 mouse assessed as minimal motor impairment at 100 mg/kg, ip after 1 hr by rotarod test; type: toxicity, organism-based; parameters: dose 100 mg/kg, route intraperitoneal; settings: in vivo
# Mus musculus [23] = assay: Anticonvulsant activity in albino CF1 mouse assessed as protection against subcutaneous metrazole-induced seizures at 30 mg/kg, ip after 0.5 hrs; type: functional, organism-based; parameters: dose 30 mg/kg
# Mus musculus [24] = assay: Anticonvulsant activity ip dosed albino CF1 mouse assessed as protection against maximal electroshock-induced seizures after 0.25 hrs; type: functional
# [25] = biological target: Sodium channel protein type 2 subunit alpha (Homo sapiens, UniProt Q99250); assay: Inhibition of human NaV1.2 expressed in HEK cells at -60 mV holding potential by patch clamp recording technique; type: cell-based, HEK293
# Sodium channel protein type 2 subunit alpha, sequence (Q99250 whole entry): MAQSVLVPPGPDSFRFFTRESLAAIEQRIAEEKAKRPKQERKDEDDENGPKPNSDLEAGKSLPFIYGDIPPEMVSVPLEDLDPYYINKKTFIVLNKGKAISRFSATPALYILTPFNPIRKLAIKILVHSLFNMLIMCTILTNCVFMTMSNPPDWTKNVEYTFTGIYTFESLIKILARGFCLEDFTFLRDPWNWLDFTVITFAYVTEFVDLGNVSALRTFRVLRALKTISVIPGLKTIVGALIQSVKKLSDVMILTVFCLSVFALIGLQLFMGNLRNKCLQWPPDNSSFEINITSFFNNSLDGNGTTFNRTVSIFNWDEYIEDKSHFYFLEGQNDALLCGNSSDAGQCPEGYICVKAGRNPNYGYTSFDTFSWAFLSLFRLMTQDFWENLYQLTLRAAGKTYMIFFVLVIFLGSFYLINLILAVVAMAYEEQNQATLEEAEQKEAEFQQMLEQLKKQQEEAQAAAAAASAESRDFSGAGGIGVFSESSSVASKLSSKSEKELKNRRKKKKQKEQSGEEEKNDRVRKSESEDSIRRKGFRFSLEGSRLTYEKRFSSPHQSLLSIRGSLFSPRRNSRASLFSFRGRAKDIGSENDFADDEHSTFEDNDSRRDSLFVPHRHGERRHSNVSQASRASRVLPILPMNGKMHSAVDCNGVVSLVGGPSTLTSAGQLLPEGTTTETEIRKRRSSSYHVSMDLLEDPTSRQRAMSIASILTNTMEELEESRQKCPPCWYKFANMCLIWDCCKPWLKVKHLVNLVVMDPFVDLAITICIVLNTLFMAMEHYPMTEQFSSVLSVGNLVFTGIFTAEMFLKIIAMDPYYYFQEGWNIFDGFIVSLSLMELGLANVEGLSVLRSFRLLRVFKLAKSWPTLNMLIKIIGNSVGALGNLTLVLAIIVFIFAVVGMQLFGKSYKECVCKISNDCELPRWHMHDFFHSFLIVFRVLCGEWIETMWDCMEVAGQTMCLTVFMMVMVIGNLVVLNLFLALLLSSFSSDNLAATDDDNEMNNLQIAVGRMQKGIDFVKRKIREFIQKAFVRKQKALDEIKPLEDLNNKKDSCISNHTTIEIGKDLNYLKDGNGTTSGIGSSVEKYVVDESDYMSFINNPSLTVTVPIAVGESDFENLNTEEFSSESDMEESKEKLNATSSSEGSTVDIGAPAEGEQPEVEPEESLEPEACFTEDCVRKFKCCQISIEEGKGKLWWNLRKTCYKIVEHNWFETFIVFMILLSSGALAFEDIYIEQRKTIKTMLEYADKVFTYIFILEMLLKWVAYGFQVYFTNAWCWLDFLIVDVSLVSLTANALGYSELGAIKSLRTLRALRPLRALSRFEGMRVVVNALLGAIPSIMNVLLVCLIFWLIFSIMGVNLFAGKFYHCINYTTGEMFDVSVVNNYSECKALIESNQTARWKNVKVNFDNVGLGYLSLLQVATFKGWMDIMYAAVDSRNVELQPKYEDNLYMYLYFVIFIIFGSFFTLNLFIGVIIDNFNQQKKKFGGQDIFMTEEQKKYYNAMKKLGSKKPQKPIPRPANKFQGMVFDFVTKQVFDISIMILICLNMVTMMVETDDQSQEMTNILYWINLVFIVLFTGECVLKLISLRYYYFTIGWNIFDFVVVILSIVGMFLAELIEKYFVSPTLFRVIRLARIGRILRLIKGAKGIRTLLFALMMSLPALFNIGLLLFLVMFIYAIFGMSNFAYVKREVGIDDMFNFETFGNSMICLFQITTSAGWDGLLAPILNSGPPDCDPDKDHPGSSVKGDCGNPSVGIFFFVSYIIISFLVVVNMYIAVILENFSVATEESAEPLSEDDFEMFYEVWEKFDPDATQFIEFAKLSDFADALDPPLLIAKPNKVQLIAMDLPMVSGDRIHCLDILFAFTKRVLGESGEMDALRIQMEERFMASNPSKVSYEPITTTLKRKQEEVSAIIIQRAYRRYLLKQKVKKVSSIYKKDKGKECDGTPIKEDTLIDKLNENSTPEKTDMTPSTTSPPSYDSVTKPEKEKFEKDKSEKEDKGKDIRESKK
# Rattus norvegicus [26] = assay: Anticonvulsant activity in albino Sprague-Dawley rat assessed as protection against maximal electroshock-induced seizures at 30 mg/kg, po after 0.25 hrs; type: functional, organism-based; parameters: dose 30 mg/kg
# Mus musculus [27] = assay: Neurotoxicity in albino CF1 mouse assessed as minimal motor impairment at 30 to 300 mg/kg, ip after 0.5 hrs by rotarod test; settings: in vivo
# Mus musculus [28] = assay: Anticonvulsant activity in albino CF1 mouse assessed as protection against subcutaneous metrazole-induced seizures at 100 mg/kg, ip after 0.5 hrs; type: functional, organism-based; parameters: dose 100 mg/kg
# Mus musculus [29] = assay: Anticonvulsant activity in albino CF1 mouse assessed as protection against maximal electroshock-induced seizures at 100 mg/kg, ip after 0.5 hrs; type: functional, organism-based; parameters: dose 100 mg/kg
# Mus musculus [30] = assay: Anticonvulsant activity in albino CF1 mouse assessed as protection against maximal electroshock-induced seizures at 100 mg/kg, ip after 2 hrs; type: functional, organism-based; parameters: dose 100 mg/kg
# Mus musculus [31] = assay: Anticonvulsant activity in albino CF1 mouse assessed as protection against subcutaneous metrazole-induced seizures at 300 mg/kg, ip after 1 hr; type: functional, organism-based; parameters: dose 300 mg/kg
# Mus musculus [32] = assay: Neurotoxicity in albino CF1 mouse assessed as minimal motor impairment at 100 mg/kg, ip after 2 hrs by rotarod test; type: toxicity, organism-based; parameters: dose 100 mg/kg, route intraperitoneal; settings: in vivo
# Mus musculus [33] = species: Mus musculus; assay: Protective index, ratio of TD50 for albino CF1 mouse after 1 hr by rotarod test to ED50 for albino CF1 mouse by maximal electroshock seizures test after 1 hr; type: functional
# [34] = Neurotoxicity in ip dosed albino CF1 mouse assessed as minimal motor impairment after 1 hr by rotarod test; type: toxicity, organism-based; settings: in vivo
# Mus musculus [35] = assay: Anticonvulsant activity in albino CF1 mouse assessed as protection against subcutaneous metrazole-induced seizures at 75 mg/kg, ip after 1 hr; type: functional, organism-based; parameters: dose 75 mg/kg
# Mus musculus [36] = assay: Anticonvulsant activity in albino CF1 mouse assessed as protection against maximal electroshock-induced seizures at 30 mg/kg, ip after 4 hrs; type: functional, organism-based; parameters: dose 30 mg/kg
# Mus musculus [37] = assay: Neurotoxicity in albino CF1 mouse assessed as minimal motor impairment at 300 mg/kg, ip after 0.5 hrs by rotarod test; type: toxicity, organism-based; parameters: dose 300 mg/kg, route intraperitoneal; settings: in vivo
# Mus musculus [38] = assay: Neurotoxicity in albino CF1 mouse assessed as minimal motor impairment at 30 mg/kg, ip after 0.5 hrs by rotarod test; type: toxicity, organism-based; parameters: dose 30 mg/kg, route intraperitoneal; settings: in vivo
# Mus musculus [39] = assay: Anticonvulsant activity in albino CF1 mouse assessed as protection against maximal electroshock-induced seizures at 100 mg/kg, ip after 4 hrs; type: functional, organism-based; parameters: dose 100 mg/kg
# Rattus norvegicus [40] = assay: Anticonvulsant activity in albino Sprague-Dawley rat assessed as protection against maximal electroshock-induced seizures at 30 mg/kg, po after 2 hrs; type: functional, organism-based; parameters: dose 30 mg/kg
# Rattus norvegicus [41] = assay: Neurotoxicity in albino Sprague-Dawley rat assessed as minimal motor impairment at 30 mg/kg, po by rotarod test; type: toxicity, organism-based; parameters: dose 30 mg/kg, route oral; settings: in vivo
# Mus musculus [42] = assay: Neurotoxicity in albino CF1 mouse assessed as minimal motor impairment at 30 to 300 mg/kg, po after 4 hrs by rotarod test; type: toxicity, organism-based; parameters: dose 30-300 mg/kg, route oral; settings: in vivo
# Mus musculus [43] = assay: Anticonvulsant activity in albino CF1 mouse assessed as protection against subcutaneous metrazole-induced seizures at 100 mg/kg, ip after 4 hrs; type: functional, organism-based; parameters: dose 100 mg/kg
# Mus musculus [44] = assay: Anticonvulsant activity in albino CF1 mouse assessed as protection against subcutaneous metrazole-induced seizures at 300 mg/kg, ip after 0.5 hrs; type: functional, organism-based; parameters: dose 300 mg/kg
# Mus musculus [45] = assay: Neurotoxicity in albino CF1 mouse assessed as minimal motor impairment at 140 mg/kg, ip after 1 hr by rotarod test; type: toxicity, organism-based; parameters: dose 140 mg/kg, route intraperitoneal; settings: in vivo
# Rattus norvegicus [46] = assay: Anticonvulsant activity in albino Sprague-Dawley rat assessed as protection against maximal electroshock-induced seizures at 30 mg/kg, po after 1 hr; type: functional, organism-based; parameters: dose 30 mg/kg
# Mus musculus [47] = assay: Anticonvulsant activity in albino CF1 mouse assessed as protection against maximal electroshock-induced seizures at 3 mg/kg, ip after 0.5 hrs; type: functional, organism-based; parameters: dose 3 mg/kg
# Mus musculus [48] = assay: Neurotoxicity in albino CF1 mouse assessed as minimal motor impairment at 10 mg/kg, ip after 0.5 hrs by rotarod test; type: toxicity, organism-based; parameters: dose 10 mg/kg, route intraperitoneal; settings: in vivo
# Mus musculus [49] = assay: Anticonvulsant activity against subcutaneous metrazole-induced seizures in ip dosed albino CF1 mouse assessed as minimum effective dose after 0.5 hrs; type: functional; settings: albino CF1, 0.5 h, read-out: MED
# Mus musculus [50] = assay: Neurotoxicity in albino CF1 mouse assessed as minimal motor impairment at 3 mg/kg, ip after 0.5 hrs by rotarod test; type: toxicity, organism-based; parameters: dose 3 mg/kg, route intraperitoneal; settings: in vivo
# Mus musculus [51] = assay: Neurotoxicity in albino CF1 mouse assessed as minimal motor impairment at 30 to 300 mg/kg, ip after 4 hrs by rotarod test; settings: in vivo
# Mus musculus [52] = assay: Anticonvulsant activity in albino CF1 mouse assessed as protection against maximal electroshock-induced seizures at 10 mg/kg, ip after 0.5 hrs; type: functional, organism-based; parameters: dose 10 mg/kg
structure (smiles),measurement,setting,value
FC(F)(F)c1ccc(-c2nc(-c3ccccc3)c[nH]2)cc1,minimal effective dose,Mus musculus [1],> 300 mg/kg
same,Activity,Rattus norvegicus [2],inactive
same,minimal effective dose,Mus musculus [3],100 mg/kg
same,Activity,Mus musculus [4],Non-toxic
same,Activity,Mus musculus [5],inactive
same,Activity,Mus musculus [6],Active
same,MED,Mus musculus [7],> 300 mg/kg
same,Activity,Mus musculus [8],inactive
same,Activity,Mus musculus [9],Non-toxic
same,PI,Mus musculus [10],>3.8
same,MED,Mus musculus [11],> 300 mg/kg
same,Activity,Mus musculus [12],inactive
same,Activity,Mus musculus [13],Non-toxic
same,Activity,Mus musculus [14],inactive
same,Activity,Mus musculus [15],Non-toxic
same,ED50,Mus musculus [16],130 mg/kg
same,Activity,Mus musculus [17],Non-toxic
same,Activity,Mus musculus [18],Active
same,minimal effective dose,Mus musculus [19],100 mg/kg
same,Activity,Mus musculus [20],inactive
same,Activity,Rattus norvegicus [21],inactive
same,Activity,Mus musculus [22],Non-toxic
same,Activity,Mus musculus [23],inactive
same,ED50,Mus musculus [24],130 mg/kg
same,IC50,[25],10.1 µM
same,Activity,Rattus norvegicus [26],inactive
same,Activity,Mus musculus [27],Non-toxic
same,Activity,Mus musculus [28],inactive
same,Activity,Mus musculus [29],inactive
same,Activity,Mus musculus [30],inactive
same,Activity,Mus musculus [31],inactive
same,Activity,Mus musculus [32],Non-toxic
same,PI,Mus musculus [33],> 3.8
same,TD50 at 1 h,[34],> 500 mg/kg
same,Activity,Mus musculus [35],inactive
same,Activity,Mus musculus [36],inactive
same,Activity,Mus musculus [37],Non-toxic
same,Activity,Mus musculus [38],Non-toxic
same,Activity,Mus musculus [39],inactive
same,Activity,Rattus norvegicus [40],inactive
same,Activity,Rattus norvegicus [41],Non-toxic
same,Activity,Mus musculus [42],Non-toxic
same,Activity,Mus musculus [43],inactive
same,Activity,Mus musculus [44],inactive
same,Activity,Mus musculus [45],Non-toxic
same,Activity,Rattus norvegicus [46],inactive
FC(F)(F)c1cccc(-c2c[nH]c(-c3ccccc3)n2)c1,minimal effective dose,Mus musculus [1],> 300 mg/kg
same,Activity,Mus musculus [47],inactive
same,minimal effective dose,Mus musculus [3],100 mg/kg
same,Activity,Mus musculus [5],Active
same,Activity,Mus musculus [48],Non-toxic
same,Activity,Mus musculus [6],Active
same,MED,Mus musculus [7],100 mg/kg
same,Activity,Mus musculus [8],inactive
same,MED,Mus musculus [11],100 mg/kg
same,minimal effective dose,Mus musculus [49],> 300 mg/kg
same,Activity,Mus musculus [14],inactive
same,Activity,Mus musculus [50],Non-toxic
same,Activity,Mus musculus [15],Non-toxic
same,Activity,Mus musculus [17],Non-toxic
same,Activity,Mus musculus [18],Active
same,minimal effective dose,Mus musculus [19],> 30 mg/kg
same,Activity,Mus musculus [23],inactive
same,Activity,Mus musculus [51],Non-toxic
same,Activity,Mus musculus [27],Non-toxic
same,Activity,Mus musculus [28],inactive
same,Activity,Mus musculus [52],inactive
same,Activity,Mus musculus [36],inactive
same,Activity,Mus musculus [38],Non-toxic
same,Activity,Mus musculus [43],inactive
same,Activity,Mus musculus [44],inactive
